3 compounds from patent US20110207944A1, “VITAMIN D3 LACTAM DERIVATIVE” (TEIJIN PHARMA LIMITED, priority 2008, published 2011) can be followed below.

The target of experiment [1] is T1, intracellular 1α,25-dihydroxyvitamin D3 receptor protein in chick intestinal mucous membrane (Gallus gallus, UniProt O42392).
T1 construct: The intracellular 1α,25-dihydroxyvitamin D3 receptor protein in chick intestinal mucous membrane (0.2 mg); from tissue; host or cells: chick intestinal mucous membrane
T1 sequence (O42392 1-451): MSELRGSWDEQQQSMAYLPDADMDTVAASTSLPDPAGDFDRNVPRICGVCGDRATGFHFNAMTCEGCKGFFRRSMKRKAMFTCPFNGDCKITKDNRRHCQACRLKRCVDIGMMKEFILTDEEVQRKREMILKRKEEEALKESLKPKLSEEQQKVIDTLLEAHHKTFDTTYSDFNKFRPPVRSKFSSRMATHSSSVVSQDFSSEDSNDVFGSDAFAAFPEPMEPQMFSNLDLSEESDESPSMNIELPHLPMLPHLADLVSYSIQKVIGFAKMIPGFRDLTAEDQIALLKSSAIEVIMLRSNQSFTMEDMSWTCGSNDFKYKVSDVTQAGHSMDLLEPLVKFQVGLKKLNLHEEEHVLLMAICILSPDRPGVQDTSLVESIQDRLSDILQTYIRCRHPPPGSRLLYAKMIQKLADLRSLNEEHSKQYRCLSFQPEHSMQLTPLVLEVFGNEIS
The experiment is described as follows: Binding affinity to intracellular vitamin D3 receptor (VDR) in chick intestinal mucous membrane, [3H]1α,25-dihydroxyvitamin D3 competition. The conditions noted are these: ratio of IC50 relative to IC50 of 1α,25-dihydroxyvitamin D3, 25° C., 1 hour. On the procedure:
Binding Affinity to Intracellular Vitamin D3 Receptor (VDR) in Chick Intestinal Mucous Membrane
This binding affinity was assayed according to the method described by Ishizuka, et al. (Steroids, 37:33-43, 1982). Specifically, a solution of [26, 27-methyl-^3H]1α,25-dihydroxyvitamin D3 (15,000 dpm, 180 Ci/mmol) in ethanol (10 μL) and a solution of various concentrations of the compounds of the present invention in ethanol (40 μL) were added into a polypropylene tube (12×75 mm). The intracellular 1α,25-dihydroxyvitamin D3 receptor protein in chick intestinal mucous membrane (0.2 mg) and gelatin (1 mg) were dissolved in 1 mL of phosphate buffer (pH 7.4), the solution was added into the tube, and the mixture was allowed to react at 25° C. for 1 hour. To the tube, a 40% polyethylene glycol 6000 solution (1 mL) was added and the mixture was vigorously stirred. Then the tube was centrifuged at 2260×g at 4° C. for 60 minutes. The bottom of the tube containing precipitate was cut off by a cutter knife and was placed in a liquid scintillation vial, dioxane scintillator (10 mL) was added thereto and the radioactivity of the precipitate was measured by a liquid scintillation counter. The measured values were plotted against the concentration of the test compounds, and IC50 (the concentration of the test compounds at which binding to the receptor was inhibited by 50%) was determined. The ratios of the IC50 of the compounds of the present invention over the IC50 of 1α,25-dihydroxyvitamin D3 were calculated as the VDR affinity of the compounds of the present invention (%).

Experiment [2] relates to HL-60 cells. The experiment is described as follows: Vitamin D3 receptor-antagonist effect: inhibition of 1α,25-dihydroxyvitamin D3-induced differentiation of HL-60 (NBT reduction activity). In kind it is cell-based. The conditions noted are these: Homo sapiens, 96 h; NBT-positive HL-60 cells, co-treatment with 1α,25-dihydroxyvitamin D3 1×10^−8 M, 4 days. The text has this: Vitamin D3 Receptor-Antagonist Effect in Terms of Cellular Differentiation-Inducing Activity of 1α,25-dihydroxyvitamin D3 in HL-60 as a Marker
(1) A HL-60 cell line purchased from a cell bank (Japanese Cancer Research Resource Bank, Cell number: JCRB0085) was used. The cells were frozen for storage as a frozen storage stock to prevent cell characteristic changes due to successive cultivations. The cells were defrosted prior to the initiation of the experiment, and those which started successive culturing were used in the experiment. Cells subcultured for one month to a half year were used for the experiment. The successive culturing was carried out by diluting the cells at a ratio of about 1/100 (1-2×10^4 cells/mL) in a fresh medium after the collection of cells from a cell suspension by centrifugation. RPMI-1640 supplemented with 10% fetal bovine serum was used as the culture medium.
(2) The subcultured cells by the procedure described in (1) were collected by centrifugation and re-suspended in the medium at 5×10^3 cells/mL, and the cells were plated into a 24-well culture dish at 1 mL/well. To this system, a solution of 1α,25-dihydroxyvitamin D3 at a concentration of 1×10^−5 M and the compounds of the present invention in a range of […] to 3×10^−3 M in ethanol, respectively, were added at 1 μL per well (the final concentration: 1×10^−8 M for 1α,25-dihydroxyvitamin D3, and 1×10^−9 M to 3×10^−6 M for the compounds of the present invention). Ethanol was added at 1 μL per well as a control. After the plate was incubated at 37° C. for 4 days in the presence of 5% CO2, the cells were separated and collected by centrifugation.
(3) The induction of nitroblue tetrazolium (hereinafter NBT) reduction activity was used as a marker for cell differentiation-inducing activity of HL-60 cells. The measurement of NBT reduction activity was carried out according to the following procedure. Specifically, cells collected by centrifugation were re-suspended in a fresh medium. Then 0.1% of NBT and 12-O-tetradecanoylphorbor-13-acetate at a final concentration of 100 ng/mL were added to the cell suspension and the mixture was incubated at 37° C. for 25 minutes. Then the cytospin smears were prepared and stained with Kernechtrot after air-drying. The ratio of positive cells expressing NBT reduction activity was determined under optical microscopy. Percentage ratios of the ratio of NBT-positive cells in a simultaneous treatment with 1α,25-dihydroxyvitamin D3 (1×10^−8 M) and a compound of the present invention (1×10^−9M and 3×10^−6 M) over the ratio of the NBT-positive cells in a single treatment with 1α,25-dihydroxyvitamin D3 (1×10^−8 M) were plotted against the treating concentration of the compounds of the present invention. […]

Molecules are shown by their SMILES.

One may read the IC50 as the midpoint of a concentration-inhibition curve.

As to `C=C1/C(=C\C=C2/CCC[C@]3(C)[C@@H]([C@H](C)CC4CC(C)(O)C(=O)N4CCc4ccccc4)CC[C@@H]23)C[C@@H](O)[C@H](C)[C@@H]1O` (stereo partly drawn) [Compound No. 11a, 2α-methyl-1α,25-dihydroxyvitamin D3-26,23-lactam-N-(2-phenethyl)], the “VDR affinity (%)” value in experiment [1] is recorded as 50%. For the same compound, the half-maximal inhibitory concentration (IC50) in experiment [2] stood at 16 nM.
The corresponding values for `C=C1/C(=C\C=C2/CCC[C@]3(C)[C@@H]([C@H](C)C[C@H]4C[C@](C)(O)C(=O)N4CCc4ccccc4)CC[C@@H]23)C[C@@H](O)[C@H](CCCO)[C@@H]1O` [Compound No. 12a, 2α-(3-hydroxypropyl)-1α,25-dihydroxyvitamin D3-26,23-lactam-N-(2-phenethyl)] are 222% and 10 nM.
The corresponding values for `C=C1/C(=C\C=C2/CCC[C@]3(C)[C@@H]([C@H](C)C[C@H]4C[C@](C)(O)C(=O)N4CCc4ccccc4)CC[C@@H]23)C[C@@H](O)[C@H](OCCCO)[C@@H]1O` [Compound No. 13a, 2α-(3-hydroxypropoxy)-1α,25-dihydroxyvitamin D3-26,23-lactam-N-(2-phenethyl)] are 20% and 52 nM.
